Source: patent US9328060B2, “J-series prostaglandin-ethanolamides as novel therapeutics” (East Carolina University, priority 2013, dated 2016)

Experiments:
[1] = test system: COX-2 overexpressing squamous carcinoma cell line JWF2; details: JWF2, background section; cited from earlier work
COX-2 = target: T1, COX-2 (Mus musculus, UniProt Q05769); assay: LC/MS of J-series PG-ethanolamides in culture medium of AEA-treated cells; assay type: cell-based; details: COX-2 overexpressing cells; for J-series PGs identified in AEA-treated cells: FIG. 6C
T1 construct: endogenous in cells; host or cells: JWF2 keratinocytes
T1 sequence (Q05769 18-604): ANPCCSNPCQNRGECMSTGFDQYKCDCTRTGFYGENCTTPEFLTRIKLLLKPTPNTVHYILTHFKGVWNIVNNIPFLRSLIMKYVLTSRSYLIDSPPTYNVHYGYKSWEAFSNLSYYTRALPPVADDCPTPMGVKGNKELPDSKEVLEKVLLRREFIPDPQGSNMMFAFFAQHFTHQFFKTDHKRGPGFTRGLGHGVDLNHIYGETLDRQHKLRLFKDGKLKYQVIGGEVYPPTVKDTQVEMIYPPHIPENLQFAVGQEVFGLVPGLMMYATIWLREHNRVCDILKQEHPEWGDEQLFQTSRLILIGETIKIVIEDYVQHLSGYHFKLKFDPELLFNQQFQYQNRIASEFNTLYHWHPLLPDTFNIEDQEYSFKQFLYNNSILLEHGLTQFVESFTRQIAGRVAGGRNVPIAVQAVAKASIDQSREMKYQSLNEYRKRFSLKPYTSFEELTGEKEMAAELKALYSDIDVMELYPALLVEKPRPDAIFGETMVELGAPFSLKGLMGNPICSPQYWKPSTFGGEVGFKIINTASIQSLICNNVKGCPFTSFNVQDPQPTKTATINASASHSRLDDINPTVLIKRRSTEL
Description: To identify the specific J-series PGs that are produced in AEA-treated cells that overexpress COX-2 we treated the cells with AEA, collected the culture medium and analyzed J-series PGs using LC/MS.
To determine the direct role of COX-2 in AEA-induced ER stress, the requirement of COX-2 for J-series PG-ethanolamide synthesis was assessed. Results are depicted in FIG. 9D.

tumor cells = assay: Selective toxicity in tumor cells (FIG. 15); assay type: cell-based
tumor cell = assay: Tumor cell death (FIG. 7); assay type: cell-based; details: compared to 15d-PGJ
[2] = test system: tumorigenic keratinocytes (Jwf2); assay: Apoptosis in tumorigenic keratinocytes (FIG. 14); assay type: cell-based; details: Jwf2, FIG. 14
[3] = test system: Tumorigenic JWF2 keratinocytes; assay: MTS cell viability, tumorigenic JWF2 keratinocytes; assay type: cell-based; details: various concentrations, FIG. 1
Description: Tumorigenic JWF2 keratinocytes were treated with various concentrations of AEA and cell viability measured using MTS analysis. […] An interesting feature of tumorigenic keratinocytes is that they overexpress COX-2. However, non-tumorigenic keratinocytes contain low basal levels of COX-2. Therefore, the role of COX-2 in the cytotoxicity of AEA was examined.
JWF2 tumorigenic keratinocytes were treated with each of these prostaglandins and cell survival measured in MTS assays.

eIF2a phosphorylation = assay: ER stress (eIF2a phosphorylation staining) in HaCaT transfected with COX-2 or empty vector; assay type: cell-based; details: HaCaT transfected with COX-2, relative to empty vector transfected cells, FIG. 2
Description: Since it was determined that AEA-induced cell death required COX-2 we examined whether ER stress also required COX-2. In this experiment we utilized HaCaT keratinocytes which express low basal levels of COX-2. The cells were transfected with an empty vector (pcDNA6.1) or an expression vector containing COX-2. In FIG. 2 the red signal indicates COX-2 expression, green indicates P-eIF2a phosphorylation and the blue stains the nuclear membrane for orientation.

[4] = test system: D- and J-series PG synthesis; assay: Prostaglandin synthesis in JWF2 cells by ELISA; assay type: cell-based; details: various concentrations of AEA, FIG. 6A
Description: To determine if D- and J-series PGs are synthesized endogenously, JWF2 cells were treated with various concentrations of AEA and prostaglandin synthesis measured using ELISA assays.

[5] = test system: non-tumorigenic HaCaT keratinocytes; assay: MTS cell viability, non-tumorigenic HaCaT keratinocytes; assay type: cell-based; details: FIG. 1
HaCaT keratinocytes = details: low basal COX-2, background section; cited from earlier work
activated caspase-3 = assay: Apoptosis (activated caspase-3 staining) with or without COX-2; assay type: cell-based
Text: Red staining indicates COX-2 while the green stain indicates activated caspase-3, a hallmark for apoptosis.

[6] = test system: CHOP10 expression and Caspase-3 cleavage; assay: CHOP10 expression and caspase-3 cleavage (FIGS. 12, 13); assay type: cell-based
H-PGDS and L-PGDS = assay: AEA-induced PGD2 and PGJ2 production (FIG. 11); assay type: cell-based
epidermal tumor = details: background section; cited from earlier work
[7] = test system: Lewis lung adenocarcinoma; details: oral administration, background section; cited from earlier work

## CCCCC/C=C/C=C1/C(=O)C=C[C@@H]1C/C=C\CCCC(=O)O [15-deoxy Δ^12,14 PGJ2, 15-deoxy-Δ^12,14-Prostaglandin J2]
[1]
  cell death: inducers of cell death

## CCCCC/C=C/C=C1/C(=O)C=CC1C/C=C\CCCC(=O)NCCO (stereo not shown) [15d-PGJ-EA, 15-deoxy Δ^12,14-prostagladin J2-ethanolamide]
COX-2
  relative abundance among J-series PG-EAs produced: most abundant produced
  J-series PGs identified in AEA-treated cells: metabolic products of AEA
Tumor cells
  toxicity, tumor cell selectivity: selectively toxic in tumor cells
Tumor cell
  tumor cell death: potent inducer of tumor cell death
[2]
  apoptosis: induces apoptosis

## CCCCC/C=C\C/C=C\C/C=C\C/C=C\CCCC(=O)NCCO [AEA, arachidonoyl ethanolamide]
[3]
  cell viability (MTS absorbance): concentration-dependent decline in tumor cell viability
eIF2a phosphorylation
  eIF2a phosphorylation (ER stress): significant increase in eIF2a phosphorylation
[4]
  D-series PG synthesis: concentration-dependent increase
  J-series PG synthesis: concentration-dependent increase
[5]
  cell viability (MTS absorbance): did not lead to a loss of viability
[1]
  cell death: induce cell death
HaCaT keratinocytes
  cell death: does not induce cell death
Activated caspase-3; cells with COX-2, FIG. 3
  apoptosis (activated caspase-3): induced apoptosis
Activated caspase-3; in the absence of COX-2, FIG. 3
  apoptosis (activated caspase-3): did not undergo apoptosis

## CCCCCC(O)CC=C1C(=O)C=CC1CC=CCCCC(=O)NCCO (stereo not shown) [D12-PGJ-EA]
COX-2
  J-series PGs identified in AEA-treated cells: metabolic products of AEA

## CCCCC[C@H](O)/C=C/[C@H]1C(=O)C[C@H](O)[C@@H]1C/C=C\CCCC(=O)NCCO [PGD2-EA]
[1]
  cell death: cytotoxic
[6]; FIG. 13
  CHOP10 expression: increased
  Cl-Casp3 expression: increased

## CCCCC[C@H](O)/C=C/[C@H]1C(=O)C[C@H](O)[C@@H]1C/C=C\CCCC(=O)O [PGD2]
[1]
  cell death: cytotoxic

## CCCCC[C@H](O)/C=C/[C@H]1C(=O)C=C[C@@H]1C/C=C\CCCC(=O)O [PGJ2]
[1]
  cell death: inducers of cell death

## CCCCCC(O)C=CC1C(=O)C=CC1CC=CCCCC(=O)NCCO (stereo not shown) [PGJ-EA]
COX-2
  J-series PGs identified in AEA-treated cells: metabolic products of AEA

## Cl[Se](Cl)(Cl)Cl [SeCL4]
[6]; FIG. 12
  AEA-induced CHOP10 expression: inhibited
[6]; indicator of apoptosis, FIG. 12
  AEA-induced Caspase-3 cleavage: inhibited
H-PGDS and L-PGDS
  AEA-induced PGD2 production: reversed
  AEA-induced PGJ2 production: reversed

## Cc1c(C(=O)c2cccc3ccccc23)c2cccc3c2n1[C@H](CN1CCOCC1)CO3 [WIN-55, 212-2]
Epidermal tumor
  epidermal tumor growth: blocked

## CCCCCc1cc(O)c2c(c1)OC(C)(C)[C@@H]1CCC(C)=C[C@@H]21 [Δ^9-THC, Δ^9-tetrahydrocannabinol]
[7]
  Lewis lung adenocarcinoma growth: reduce Lewis lung adenocarcinoma growth
